Data published in patent publication US20100068747A1, “Generic Assay for Monitoring Endocytosis” (Evotec Technologies GmbH, priority 2005, published 2010).
Entries after “also recorded” stand apart in the source; their conditions may differ.

Legend:
U2OS/ETAR-GFP cells [1] = test: Internalization pathway analysis in U2OS/ETAR-GFP cells; assay type: cell-based, human
Experimental: With regard to the internalization pathway analysis in U2OS/ETAR-GFP cells, RDE was inhibited by including 5 mM β-methyl-cyclodextrin (CD) in the leveling medium. The following labeling and chase incubations were conducted in standard assay medium. For inhibition of clathrin mediated endocytosis cells were subjected to hypotonic shock by incubating 5 minutes at 37° C. in a 1:1 starvation medium-ddH2O mixture and then were transferred into a potassium (K^+) depleted assay medium for temperature leveling. The following labeling and chase incubations were also conducted in K^+ depleted assay medium, which was prepared by substituting sodium salts for all potassium salts in HBSS. Inhibition of both pathways was achieved by combining both methods and including 5 mM CD in the leveling medium for CLAME inhibition. For CLAME controls, 5 μg/ml Alexa Fluor 488 conjugated transferrin was included during the labeling period for all inhibited pathway scenarios. Protocol procedures were conducted as described, however, lectins were omitted in the labeling step. For lipid raft-dependent pathways there were no control markers available.

CHO/ETAR cells [2] = test: Lectin labeling of fixed cells, CHO/ETAR; assay type: cell-based; conditions: TRITC-lectin 10 nM and 20 nM
Experimental: (§1) Lectin labeling of fixed cells was conducted as follows: To detach confluent cells in order to prepare experiments for internalization studies, cells were always treated with EDTA solution instead of trypsin solution. For all seeding, washing, and labeling steps in 96-well plates a working volume of 100 μl per well was assessed. Cells were seeded out into a 96-well plate at different concentrations. U2OS/ETAR-GFP suspensions were adjusted to yield 2*10^4 cells/well, both of the CHO cell lines must be at 2.5*10^4 cells/well. Cells became confluent after 24 hours of incubation. In the following, they were washed with phosphate buffered saline (PBS) and fixed with 3% PFA for 20 minutes at RT. Then, cells were washed again with PBS and incubated in 10 nM and 20 nM solutions of each TRITC-lectin candidate in PBS, respectively. Again, cells were washed with PBS to remove excess lectin, and wells were refilled with PBS for analysis. For specificity controls, lectin solutions were incubated for 30 minutes prior to the application with an excess of the monosaccharide that represents the respective glyco-epitope.
(§2) The following microscopy and image analysis techniques were employed. When utilizing the epifluorescence microscope magnifications were adjusted according to the purpose of observation, e.g. single cell vs. cell collective. Concerning the filters U-MNU was used for Hoechst, U-MSWB for GFP, and U-N41007 for TRITC detection. Hoechst images were taken at 50 ms exposure time, GFP images at 100 to 200 ms and TRITC images needed 500 to 1000 ms. Overlay images were assembled with AnalySIS and tuned in color intensity to obtain the desired color contrast. Images taken to compare two experimental conditions, e.g. control vs. stimulus, featured identical exposure parameters. If possible, well areas were chosen that reflect similar states of confluence. Utilizing the Opera confocal fluorescence imager, the instrument was calibrated running standard methods for skew cropping (spatial camera alignments) and camera intensity normalization.

CHO/ETAR cells [3] = test: Lectin labeling of live cells, CHO/ETAR; assay type: cell-based; conditions: TRITC-lectin, 10 nM at maximum
Experimental: (§3) Lectin labeling of live cells was conducted as follows: Cells were seeded as described above. After 24 hours cells were washed once with PBS and incubated in the incubator for another 2 hours in the respective standard medium without serum supplement to deprive them of serum factor mediated stimuli. This step was termed starvation period. Subsequently, cells were washed gently with PBS and incubated with 37° C. tempered assay medium comprised of Hank's Balanced Salt Solution (HBSS) pH 7.4, containing 20 mM HEPES and 30 mM D-glucose. The plate was left at RT for 30 minutes to slowly level its temperature and, thus, avoid capturing of temperature drop induced membrane dynamics. This period was termed leveling period. Then, assay medium was withdrawn and wells refilled with TRITC-lectin solutions at RT to start cell labeling. Several lectin concentrations in the low nano-molar range were tested. Molar concentrations were calculated from the data provided by Vector Labs. The plate was placed on a rotating shaker at low revolutions for 10 minutes while incubating. The start of the lectin incubation is referred to as assay starting point with t=0 min. After the 10 min incubation period the cells were gently washed with PBS and wells refilled with assay buffer at RT. Instantly thereafter, fluorescence signals were monitored predominately using the epifluorescence microscope.
as §2

U2OS/ETAR-GFP cells [4] = test: Lectin labeling of fixed cells, U2OS/ETAR-GFP; assay type: cell-based, human; conditions: TRITC-lectin 10 nM and 20 nM
Experimental: as §1, §2

CHO/PAR-2 cells [5] = test: Lectin labeling of fixed cells, CHO/PAR-2; assay type: cell-based; conditions: TRITC-lectin 10 nM and 20 nM
Experimental: as §1, §2

[6] = tested on: CHO/PAR-2 cell membrane protein; test: Lectin blotting of PAR-2 membrane sample; assay type: binding; conditions: biotinylated lectin 5 μg/ml
Experimental: (§4) Membrane preparation was conducted as follows: Cells were cultured in five T175 flasks until confluency. Confluent cells were detached by applying 3 ml of EDTA solution onto the PBS washed cells. Following a 20-minute incubation at 37° C. and 5% CO2, cells were resuspended in 12 ml of starvation medium (standard medium without FCS), counted, and centrifuged in a Heraeus Megafuge 1.0R at 133 rcf for 4 minutes. All subsequent steps were carried out on ice and with ice cold solutions. After unification of all pellet fractions, hypotonic lysis buffer was added to the cells at a ratio of 1 ml per 5*10^7 cells. Additionally, protease inhibitor cocktail was added to 50 μl per 5*10^7 cells. Cells were homogenized with 30 strokes in a 5 ml potter on ice, centrifuged at 4° C. and 917 rcf for 10 minutes, and the supernatant was stored in an ultracentrifuge tube on ice. The pellet fraction was homogenized and centrifuged once again as described above. The supernatants of both procedures were unified and centrifuged at 4° C. and 100,000 rcf for 45 minutes in a Sorvall ultra-centrifuge. The supernatant of this centrifugation procedure was withdrawn and the pellet dissolved in 0.5 ml or 1.0 ml modified SDS PAGE loading buffer containing Tris-HCl, SDS, glycerol, but no β-mercapto-ethanol or dyes and stored in small aliquots of 50 μl at −20° C.
(§5) SDS-Page of membrane samples was conducted as follows: Discontinuous 12% polyacrylamide gels were prepared according to a standard protocol. Broad range marker and 25 μg membrane protein were mixed 1:1 with loading buffer and loaded five times onto a mini gel in alternating order. The gels were run at U=100 V for the first 20 minutes. Subsequently, voltage was increased to U=150 V. The run was aborted as soon as the pyronin G band reached the end of the gel. For coomassie staining, gels were put in coomassie staining solution on a shaker at low revolutions for 45 min. The staining solution was removed and the gel incubated with destaining solution for one to two hours, exchanging the solution several times until the desired contrast was obtained.
Blotting of membrane samples was conducted as follows: For blotting, 3 mm packs of Whatman papers were extensively soaked in one of the diverging blotting buffers, AB I, AB II, and CB, and a pile was assembled in a semi-dry Trans-Blot 3D system from Bio-Rad as depicted in the sketch of FIG. 2. Hybond nitrocellulose membrane was submerged in AB II prior to assembly. To smooth out any air bubbles from the pile, a Pasteur pipette was rolled several times over the top layer. The apparatus was closed and ran at U=25 V for 45 minutes. Then, the pile was disassembled, the membrane submerged in Ponceau S solution and gently swayed for 2 minutes. For destaining, ddH2O was substituted for the staining solution, and the membrane was briefly rinsed twice. After drying under ambient conditions, the marker bands were marked with a ballpoint-pen. The membrane was cut into slices each displaying one marker and one sample lane.
Probing of membrane samples was conducted as follows: For classical western blotting, membranes were blocked in PBS containing 5% low fat dried milk powder. They were placed on a rotating shaker at low revolutions for 1 hour. Subsequently, membranes were sealed in plastic bags with blocking solution additionally containing 1 μg/ml anti-PAR-2 antibody (1:400) or 0.5 μg/ml of anti-ETAR antibody (1:500), depending on the respective recombinant cell type used for the sample. […]

U2OS/ETAR-GFP cells [7] = test: Lectin labeling of live cells, U2OS/ETAR-GFP; assay type: cell-based, human; conditions: TRITC-lectin, 10 nM at maximum
Experimental: as §3, §2

CHO/PAR-2 cells [8] = test: Lectin labeling of live cells, CHO/PAR-2; assay type: cell-based; conditions: TRITC-lectin, 10 nM at maximum
Experimental: as §3, §2

live cells = test: Signal transformation on live cells after labeling with fluorescent lectins (all cell lines); assay type: cell-based; conditions: all experiments
Experimental: as §3, with “The plate was placed on a rotating shaker at low revolutions for 10 minutes while incubating. The start of the lectin incubation is referred to as assay starting point with t=0 min. After the 10 min incubation period the cells were gently washed with PBS and wells refilled with assay buffer at RT.” left out
The following microscopy and image analysis techniques were employed. […] Utilizing the Opera confocal fluorescence imager, the instrument was calibrated running standard methods for skew cropping (spatial camera alignments) and camera intensity normalization.

U2OS cells = test: Specificity control with competing monosaccharide on fixed cells; assay type: cell-based, human; conditions: excess of inhibitory monosaccharide
Experimental: as §1

U2OS/ETAR-GFP cells [9] = test: Serum supplements (insulin) in live cell labeling; assay type: cell-based, human; conditions: 20 nM in assay medium in labeling and chase incubations
Experimental: For serum supplements in live cell labeling, starvation was carried out in Opti-MEM medium (11058; Gibco—Invitrogen, Karlsruhe, Germany). The following labeling and chase incubations were conducted in assay medium with a 20 nM insulin supplement.

[10] = tested on: CHO/ETAR cell membrane protein; test: Lectin blotting of ETAR membrane sample; assay type: binding; conditions: biotinylated lectin 5 μg/ml
Experimental: as §4
as §5, with “obtained. […]” for “obtained.”

U2OS/ETAR-GFP cells [11] = test: Effect of lectin incubation on morphology of live cells; assay type: cell-based, human; conditions: 5 nM, 10 nM, and 20 nM versus the control
Experimental: as §3

β-methyl-cyclodextrin
spot formation of sWGA signal under inhibition of raft-dependent pathways (U2OS/ETAR-GFP cells [1]; 5 mM in leveling medium, cholesterol extraction): did not impede the typical spot formation

Lens culinaris agglutin [LCA]
Staining of CHO/ETAR (CHO/ETAR cells [2]): cell surface
Live cell staining of CHO/ETAR (CHO/ETAR cells [3]): fluorescence accumulation in the form of tiny points around the cell boundaries; also recorded: cell boundary, points
Staining of U2OS/ETAR-GFP (U2OS/ETAR-GFP cells [4]): extensive fluorescence was observed at the cell surface
Staining of CHO/PAR-2 (CHO/PAR-2 cells [5]): reduced intensity with a high background; also recorded: weak cell surface
band at the same height as the western band (55 kDa, anti-PAR-2) [6]: one of them matching the height of the western band
bands detected above 35 kDa ([6]; exposure one to five minutes): four
Live cell staining of U2OS/ETAR-GFP (U2OS/ETAR-GFP cells [7]): spot formation
Live cell staining of CHO/PAR-2 (CHO/PAR-2 cells [8]): spot formation

Phaseolus vulgaris erythroagglutin [PHA-E]
stability of fluorescence signal over time (live cells): fairly stable signals
Staining of CHO/ETAR (CHO/ETAR cells [2]): cell surface
Live cell staining of CHO/ETAR (CHO/ETAR cells [3]): cell surface, sequestered
Staining of U2OS/ETAR-GFP (U2OS/ETAR-GFP cells [4]): extensive fluorescence was observed at the cell surface
fluorescent signal in the presence of the competing monosaccharide (U2OS cells): reduced
Staining of CHO/PAR-2 (CHO/PAR-2 cells [5]): signals clearly marking individual cells; also recorded: cell surface
Live cell staining of U2OS/ETAR-GFP (U2OS/ETAR-GFP cells [7]): spot formation
Live cell staining of CHO/PAR-2 (CHO/PAR-2 cells [8]): strong signal contrast between the relatively unstained nucleus area and its fluorescing perimeter; also recorded: spot formation

porcine insulin
effect on spot formation of sWGA signal (U2OS/ETAR-GFP cells [9]): complete suppression of spot formation

Pisum sativum agglutin [PSA]
Staining of U2OS/ETAR-GFP (U2OS/ETAR-GFP cells [4]): extensive fluorescence was observed at the cell surface
band at the same height as in the western (47 kDa, anti-ETAR) [10]: could clearly be detected
Staining of CHO/PAR-2 (CHO/PAR-2 cells [5]): reduced intensity with a high background; also recorded: weak cell surface
Live cell staining of U2OS/ETAR-GFP (U2OS/ETAR-GFP cells [7]): spot formation

Griffonia (Bandeiraea) simplicifolia lectin [GSL-I]
Staining of U2OS/ETAR-GFP (U2OS/ETAR-GFP cells [4]): very faint signal covering only some single cells; also recorded: weak single cell
Staining of CHO/PAR-2 (CHO/PAR-2 cells [5]): reduced intensity with a high background; also recorded: weak cell surface
Live cell staining of U2OS/ETAR-GFP (U2OS/ETAR-GFP cells [7]): signal points were significantly smaller and less; also recorded: small, scattered

Sophora japonica agglutin [SJA]
effect on U2OS/ETAR-GFP cells, phase contrast (U2OS/ETAR-GFP cells [11]): Irritating effect
Staining of U2OS/ETAR-GFP (U2OS/ETAR-GFP cells [4]): only several little, spot-like signals on each cell; also recorded: weak spots on cell
fluorescent signal in the presence of the competing monosaccharide (U2OS cells): reduced
Live cell staining of U2OS/ETAR-GFP (U2OS/ETAR-GFP cells [7]): medium sized, scattered spots

Alexa-Fluor® 488-transferrin: Human holo-transferrin-Alexa Fluor 488 conjugate, standard marker of the clathrin-mediated pathway
signals of clathrin-mediated pathway marker (U2OS/ETAR-GFP cells [1]; 5 μg/ml, all conditions but inhibition of the clathrin-dependent pathway): detected in the perinuclear region

Phaseolus vulgaris leucoagglutin [PHA-L]
stability of fluorescence signal over time (live cells): fairly stable signals
Staining of CHO/ETAR (CHO/ETAR cells [2]): cell surface
Live cell staining of CHO/ETAR (CHO/ETAR cells [3]): cell surface, sequestered
Staining of U2OS/ETAR-GFP (U2OS/ETAR-GFP cells [4]): extensive fluorescence was observed at the cell surface
fluorescent signal in the presence of the competing monosaccharide (U2OS cells): reduced
Staining of CHO/PAR-2 (CHO/PAR-2 cells [5]): signals clearly marking individual cells; also recorded: cell surface
Live cell staining of U2OS/ETAR-GFP (U2OS/ETAR-GFP cells [7]): spot formation
Live cell staining of CHO/PAR-2 (CHO/PAR-2 cells [8]): strong signal contrast between the relatively unstained nucleus area and its fluorescing perimeter; also recorded: spot formation
